Measurements published in US9796711B2, “Substituted pyrazolo[3,4-b]pyridin-6-carboxylic acids and method of use” (AbbVie S.àr.l., priority 2015, dated 2017).

Columns and labels:
ΔF508-CFTR [1] = biological target: T1, ΔF508-CFTR (Homo sapiens, UniProt P13569, DEL508-508); test: CFTR cell surface levels using HRP-tagged ΔF508-CFTR expressing CFBE cells, in the presence of a co-corrector; assay type: cell-based; conditions: HRP-tagged ΔF508-CFTR expressing CFBE cells, in the presence of 3 μM co-corrector; for EC50: read-out: EC50
T1 construct: host or cells: CFBE41o-, doxycycline-inducible
Summary of the method: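 Cells were seeded with 0.5 μg/mL doxycycline and held 68 h at 37 °C. Test compounds plus 3 μM co-corrector (final 0.1% DMSO) were then added for 20 h at 33 °C. Washed cells received HRP substrate, and luminescence was normalized between DMSO and 3 μM co-corrector controls.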

ΔF508-CFTR [2] = biological target: T1, ΔF508-CFTR; test: CFTR cell surface levels using HRP-tagged ΔF508-CFTR expressing CFBE cells, intrinsic corrector capacity; assay type: cell-based; conditions: for EC50: read-out: EC50
Summary of the method: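 Here the cells express ΔF508-CFTR with horseradish peroxidase inserted in extracellular loop 4, so only rescued channel at the surface gives luminescent signal. Compounds act on their own, 20 h at the reduced temperature of 33 °C; values are percent activity relative to DMSO and a 3 μM corrector.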

[3] = HRP-tagged ΔF508-CFTR CFBE41o- cells, compounds alone (intrinsic corrector capacity), 20 hours at 33° C., positive control 3 μM corrector
[4] = HRP-tagged ΔF508-CFTR CFBE41o- cells, compounds alone (intrinsic corrector capacity), 20 hours at 33° C.
[5] = HRP-tagged ΔF508-CFTR expressing CFBE cells, intrinsic corrector capacity (no co-corrector), 33° C., 20 hours

T1 sequence (P13569 with tags, fused parts or gaps DEL508-508): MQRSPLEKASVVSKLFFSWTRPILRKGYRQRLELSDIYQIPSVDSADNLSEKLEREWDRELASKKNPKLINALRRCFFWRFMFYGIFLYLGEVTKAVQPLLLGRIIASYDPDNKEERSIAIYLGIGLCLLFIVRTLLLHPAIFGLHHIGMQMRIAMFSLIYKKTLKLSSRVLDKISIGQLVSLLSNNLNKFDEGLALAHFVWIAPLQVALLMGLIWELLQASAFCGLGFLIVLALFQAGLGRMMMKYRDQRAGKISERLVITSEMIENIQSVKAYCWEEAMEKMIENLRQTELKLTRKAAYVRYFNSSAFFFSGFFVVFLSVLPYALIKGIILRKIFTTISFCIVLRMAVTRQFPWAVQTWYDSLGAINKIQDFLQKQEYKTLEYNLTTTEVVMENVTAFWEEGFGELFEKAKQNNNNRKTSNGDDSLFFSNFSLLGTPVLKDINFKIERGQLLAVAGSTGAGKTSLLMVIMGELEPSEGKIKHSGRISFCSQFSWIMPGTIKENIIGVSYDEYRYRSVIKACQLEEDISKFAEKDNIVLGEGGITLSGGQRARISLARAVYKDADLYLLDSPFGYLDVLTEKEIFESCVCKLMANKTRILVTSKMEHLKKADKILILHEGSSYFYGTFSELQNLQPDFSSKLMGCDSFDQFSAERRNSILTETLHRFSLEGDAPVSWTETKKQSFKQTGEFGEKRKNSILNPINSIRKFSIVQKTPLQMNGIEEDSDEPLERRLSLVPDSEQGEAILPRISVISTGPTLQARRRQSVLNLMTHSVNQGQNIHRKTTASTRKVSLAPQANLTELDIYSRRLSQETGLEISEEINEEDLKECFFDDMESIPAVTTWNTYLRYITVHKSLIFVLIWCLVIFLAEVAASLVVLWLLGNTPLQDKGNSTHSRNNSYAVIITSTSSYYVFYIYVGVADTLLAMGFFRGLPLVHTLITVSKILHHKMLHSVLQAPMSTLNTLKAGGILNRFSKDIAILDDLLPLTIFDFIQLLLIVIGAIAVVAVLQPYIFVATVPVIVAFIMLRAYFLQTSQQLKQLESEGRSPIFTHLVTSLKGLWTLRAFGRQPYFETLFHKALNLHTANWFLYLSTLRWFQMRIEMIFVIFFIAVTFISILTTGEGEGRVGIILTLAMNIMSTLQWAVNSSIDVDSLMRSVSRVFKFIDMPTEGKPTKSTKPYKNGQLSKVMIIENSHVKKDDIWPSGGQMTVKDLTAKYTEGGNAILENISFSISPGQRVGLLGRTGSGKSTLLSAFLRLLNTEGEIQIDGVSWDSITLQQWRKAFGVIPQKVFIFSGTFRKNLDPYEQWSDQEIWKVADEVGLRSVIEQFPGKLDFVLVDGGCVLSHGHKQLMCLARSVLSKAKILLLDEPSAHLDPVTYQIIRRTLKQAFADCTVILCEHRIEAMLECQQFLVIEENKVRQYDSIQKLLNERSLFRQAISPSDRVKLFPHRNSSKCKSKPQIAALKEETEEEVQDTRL

| Structure (SMILES) | % Activation (ΔF508-CFTR [1]) | EC50 (ΔF508-CFTR [1]) | % Activation (ΔF508-CFTR [2]; [3]) | EC50 (ΔF508-CFTR [2]; [4]) | % Activation (ΔF508-CFTR [2]; [5]) | EC50 (ΔF508-CFTR [2]; [5]) |
| --- | --- | --- | --- | --- | --- | --- |
| Cc1nn(-c2ccccc2)c2nc(C(=O)O)cc(N3CCC([C@H](F)CN(C)C)CC3)c12 [compound 314, 4-{4-[(1S)-2-(dimethylamino)-1-fluoroethyl]piperidin-1-yl}-3-methyl-1-phenyl-1H-pyrazolo[3,4-b]pyridine-6-carboxylic acid] | 250.1% | 2510 nM | 92.46% | 2510 nM | – | – |
| Cc1cccc(-n2nc(C(C)C)c3c(N4CCC5(CCOCC5)C4)cc(C(=O)O)nc32)c1 [compound 262, 1-(3-methylphenyl)-4-(8-oxa-2-azaspiro[4.5]decan-2-yl)-3-(propan-2-yl)-1H-pyrazolo[3,4-b]pyridine-6-carboxylic acid] | 375.95% | 853 nM | 164.4% | 916 nM | – | – |
| CC(C)c1nn(-c2ccnc(N3CCOCC3)c2)c2nc(C(=O)O)cc(-c3ccc(N4CCC(C#N)CC4)nc3)c12 [compound 437, 4-[6-(4-cyanopiperidin-1-yl)pyridin-3-yl]-1-[2-(morpholin-4-yl)pyridin-4-yl]-3-(propan-2-yl)-1H-pyrazolo[3,4-b]pyridine-6-carboxylic acid] | 419.53% | 795 nM | – | – | 247.47% | 1230 nM |
| CC(C)OC1CCN(c2cc(C(=O)O)nc3c2c(C2CCC2)nn3-c2ccccc2)CC1 [compound 372, 3-cyclobutyl-1-phenyl-4-{4-[(propan-2-yl)oxy]piperidin-1-yl}-1H-pyrazolo[3,4-b]pyridine-6-carboxylic acid] | 388.6% | 126 nM | 179% | 262 nM | – | – |
| COC(=O)N1CCC(n2nc(C(C)C)c3c(-c4ccc(N5CCOCC5)cc4)cc(C(=O)O)nc32)C1 (stereo not shown) [compound 142, 1-[1-(methoxycarbonyl)pyrrolidin-3-yl]-4-[4-(morpholin-4-yl)phenyl]-3-(propan-2-yl)-1H-pyrazolo[3,4-b]pyridine-6-carboxylic acid] | 135.2% | 5550 nM | 17.605% | > 10000 nM | – | – |
| O=C(O)c1cc(N2CCN(CC(=O)N3CCCC3)CC2)c2c(C3CCC3)nn(-c3ccccc3)c2n1 [compound 472, 3-cyclobutyl-4-{4-[2-oxo-2-(pyrrolidin-1-yl)ethyl]piperazin-1-yl}-1-phenyl-1H-pyrazolo[3,4-b]pyridine-6-carboxylic acid] | 292.55% | 1380 nM | – | – | 144% | 2490 nM |
| Cc1cccc(-n2nc(C(C)C)c3c(N4CCC(S(C)(=O)=O)C4)cc(C(=O)O)nc32)c1 (stereo not shown) [compound 272, 4-[3-(methanesulfonyl)pyrrolidin-1-yl]-1-(3-methylphenyl)-3-(propan-2-yl)-1H-pyrazolo[3,4-b]pyridine-6-carboxylic acid] | 319.6% | 3340 nM | 135.5% | 3340 nM | – | – |
| COc1cc(-n2nc(C3CCC3)c3c(N4CCC(N5CCOCC5)CC4)cc(C(=O)O)nc32)ccc1F [compound 908, 3-cyclobutyl-1-(4-fluoro-3-methoxyphenyl)-4-[4-(morpholin-4-yl)piperidin-1-yl]-1H-pyrazolo[3,4-b]pyridine-6-carboxylic acid] | 486.75% | 171 nM | – | – | 220.2% | 256 nM |
| O=C(O)c1cc(OCC(F)(F)F)c2c(C3CCC3)nn(-c3ccccc3)c2n1 [compound 613, 3-cyclobutyl-1-phenyl-4-(2,2,2-trifluoroethoxy)-1H-pyrazolo[3,4-b]pyridine-6-carboxylic acid] | 292% | 739 nM | – | – | 99.78% | 1600 nM |
| COCCOCC1(F)CCCN(c2cc(C(=O)O)nc3c2c(C2CCC2)nn3-c2ccccc2)C1 (stereo not shown) [compound 462, 3-cyclobutyl-4-{3-fluoro-3-[(2-methoxyethoxy)methyl]piperidin-1-yl}-1-phenyl-1H-pyrazolo[3,4-b]pyridine-6-carboxylic acid] | 316.85% | 318 nM | – | – | 156.2% | 486 nM |
